Experimental data taken from publication PMC7442682 (Chemical biology & drug design, 2020).

Experiments:
5-HT1A receptor = molecular target: T1, 5-HT1A receptor (Homo sapiens, UniProt P08908); experiment: PDSP radioligand binding, 5-HT1A receptor
T1 sequence (P08908 1-422): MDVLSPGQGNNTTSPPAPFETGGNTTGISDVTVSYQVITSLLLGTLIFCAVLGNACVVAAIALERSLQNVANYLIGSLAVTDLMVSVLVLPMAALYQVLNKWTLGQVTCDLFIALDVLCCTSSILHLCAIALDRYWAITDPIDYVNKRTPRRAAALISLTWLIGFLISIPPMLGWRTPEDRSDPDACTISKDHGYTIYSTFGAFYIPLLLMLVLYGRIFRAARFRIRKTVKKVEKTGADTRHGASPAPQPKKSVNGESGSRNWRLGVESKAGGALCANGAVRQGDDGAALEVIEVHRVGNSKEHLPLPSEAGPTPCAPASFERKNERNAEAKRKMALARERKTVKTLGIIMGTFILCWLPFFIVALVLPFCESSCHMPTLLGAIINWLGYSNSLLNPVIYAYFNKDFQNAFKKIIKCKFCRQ

5-HT1B receptor = 5-HT1B receptor (Homo sapiens, UniProt P28222); experiment: PDSP radioligand binding, 5-HT1B receptor
Chain of 5-HT1B receptor (P28222 whole entry): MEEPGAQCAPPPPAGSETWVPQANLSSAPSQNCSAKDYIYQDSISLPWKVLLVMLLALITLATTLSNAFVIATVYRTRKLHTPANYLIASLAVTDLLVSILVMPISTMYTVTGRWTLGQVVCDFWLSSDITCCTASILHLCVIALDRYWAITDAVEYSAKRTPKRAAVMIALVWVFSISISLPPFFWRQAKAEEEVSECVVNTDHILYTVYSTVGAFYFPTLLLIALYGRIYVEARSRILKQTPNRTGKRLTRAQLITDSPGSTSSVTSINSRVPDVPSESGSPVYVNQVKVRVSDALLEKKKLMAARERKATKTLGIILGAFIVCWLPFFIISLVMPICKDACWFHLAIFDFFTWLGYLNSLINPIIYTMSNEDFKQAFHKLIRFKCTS

5-HT5A receptor = 5-HT5A receptor (Homo sapiens, UniProt P47898); experiment: PDSP radioligand binding, 5-HT5A receptor
Chain of 5-HT5A receptor (P47898 whole entry): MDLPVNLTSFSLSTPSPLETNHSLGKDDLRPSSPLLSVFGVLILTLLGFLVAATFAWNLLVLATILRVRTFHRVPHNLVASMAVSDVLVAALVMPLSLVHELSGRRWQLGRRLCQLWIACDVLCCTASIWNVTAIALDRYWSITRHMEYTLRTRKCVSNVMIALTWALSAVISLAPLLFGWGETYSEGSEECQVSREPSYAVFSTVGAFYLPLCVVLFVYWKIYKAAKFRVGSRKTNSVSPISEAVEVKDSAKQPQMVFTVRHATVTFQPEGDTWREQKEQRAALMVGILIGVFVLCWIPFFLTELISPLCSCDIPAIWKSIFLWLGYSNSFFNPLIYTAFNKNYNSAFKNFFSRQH

α2B adrenergic receptor = molecular target: T2, α2B adrenergic receptor (Homo sapiens, UniProt P18089); experiment: PDSP radioligand binding, α2B adrenergic receptor
T2 sequence (P18089 1-450): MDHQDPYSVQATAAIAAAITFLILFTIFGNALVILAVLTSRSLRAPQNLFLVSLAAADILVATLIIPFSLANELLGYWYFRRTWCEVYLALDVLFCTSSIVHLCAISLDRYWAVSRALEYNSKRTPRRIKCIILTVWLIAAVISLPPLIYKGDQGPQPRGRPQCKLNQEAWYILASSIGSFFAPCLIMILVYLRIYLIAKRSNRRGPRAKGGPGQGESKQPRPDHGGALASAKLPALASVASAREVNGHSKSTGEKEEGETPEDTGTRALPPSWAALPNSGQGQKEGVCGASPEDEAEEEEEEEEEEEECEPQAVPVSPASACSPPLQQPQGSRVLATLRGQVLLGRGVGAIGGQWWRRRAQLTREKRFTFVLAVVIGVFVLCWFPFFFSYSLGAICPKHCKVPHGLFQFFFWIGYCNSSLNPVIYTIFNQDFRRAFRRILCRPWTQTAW

α1A adrenergic receptor = molecular target: T3, α1A adrenergic receptor (Homo sapiens, UniProt P35348); experiment: PDSP radioligand binding, α1A adrenergic receptor
T3 sequence (P35348 1-466): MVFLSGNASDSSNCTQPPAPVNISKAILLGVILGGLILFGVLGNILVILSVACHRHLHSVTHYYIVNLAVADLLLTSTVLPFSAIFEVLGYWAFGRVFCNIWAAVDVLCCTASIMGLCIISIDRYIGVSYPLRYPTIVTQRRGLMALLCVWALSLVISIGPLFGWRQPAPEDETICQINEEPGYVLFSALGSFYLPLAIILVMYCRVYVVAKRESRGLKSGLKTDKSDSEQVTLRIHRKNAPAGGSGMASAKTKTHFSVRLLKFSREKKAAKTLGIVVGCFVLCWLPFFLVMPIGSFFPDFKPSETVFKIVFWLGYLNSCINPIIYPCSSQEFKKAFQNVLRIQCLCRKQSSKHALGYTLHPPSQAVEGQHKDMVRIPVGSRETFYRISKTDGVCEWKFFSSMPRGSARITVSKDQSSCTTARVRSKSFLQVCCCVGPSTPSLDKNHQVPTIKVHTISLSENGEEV

D1 receptor = D1 receptor (Homo sapiens, UniProt P21728); experiment: PDSP radioligand binding, dopamine D1 receptor
Chain of D1 receptor (P21728 whole entry): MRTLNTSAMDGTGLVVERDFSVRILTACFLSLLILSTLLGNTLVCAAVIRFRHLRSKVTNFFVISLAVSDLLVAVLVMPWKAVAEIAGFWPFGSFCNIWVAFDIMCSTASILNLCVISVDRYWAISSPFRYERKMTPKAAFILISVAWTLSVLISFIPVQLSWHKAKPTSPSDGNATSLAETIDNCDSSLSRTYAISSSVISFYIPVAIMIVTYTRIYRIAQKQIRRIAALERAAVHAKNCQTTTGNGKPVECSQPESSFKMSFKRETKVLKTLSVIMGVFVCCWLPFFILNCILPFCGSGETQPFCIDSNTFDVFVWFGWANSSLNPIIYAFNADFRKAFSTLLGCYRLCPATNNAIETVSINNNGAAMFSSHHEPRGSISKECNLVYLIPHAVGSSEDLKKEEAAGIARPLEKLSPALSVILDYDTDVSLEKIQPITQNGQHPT

D2 receptor = D2 receptor (Homo sapiens, UniProt P14416); experiment: PDSP radioligand binding, dopamine D2 receptor
Chain of D2 receptor (P14416 whole entry): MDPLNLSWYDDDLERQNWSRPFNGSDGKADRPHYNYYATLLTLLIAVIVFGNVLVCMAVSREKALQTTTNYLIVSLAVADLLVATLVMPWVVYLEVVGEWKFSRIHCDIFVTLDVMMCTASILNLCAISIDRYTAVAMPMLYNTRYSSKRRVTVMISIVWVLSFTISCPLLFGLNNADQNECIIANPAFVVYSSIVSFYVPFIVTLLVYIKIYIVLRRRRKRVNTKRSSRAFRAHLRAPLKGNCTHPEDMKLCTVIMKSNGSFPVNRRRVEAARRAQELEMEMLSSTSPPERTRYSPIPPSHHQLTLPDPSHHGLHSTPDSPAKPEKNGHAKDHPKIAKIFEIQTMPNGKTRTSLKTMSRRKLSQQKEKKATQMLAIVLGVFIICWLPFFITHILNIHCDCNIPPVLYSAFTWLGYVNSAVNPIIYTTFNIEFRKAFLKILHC

5-HT2A receptor = 5-HT2A receptor (Homo sapiens, UniProt P28223); experiment: PDSP radioligand binding, 5-HT2A receptor
Chain of 5-HT2A receptor (P28223 whole entry): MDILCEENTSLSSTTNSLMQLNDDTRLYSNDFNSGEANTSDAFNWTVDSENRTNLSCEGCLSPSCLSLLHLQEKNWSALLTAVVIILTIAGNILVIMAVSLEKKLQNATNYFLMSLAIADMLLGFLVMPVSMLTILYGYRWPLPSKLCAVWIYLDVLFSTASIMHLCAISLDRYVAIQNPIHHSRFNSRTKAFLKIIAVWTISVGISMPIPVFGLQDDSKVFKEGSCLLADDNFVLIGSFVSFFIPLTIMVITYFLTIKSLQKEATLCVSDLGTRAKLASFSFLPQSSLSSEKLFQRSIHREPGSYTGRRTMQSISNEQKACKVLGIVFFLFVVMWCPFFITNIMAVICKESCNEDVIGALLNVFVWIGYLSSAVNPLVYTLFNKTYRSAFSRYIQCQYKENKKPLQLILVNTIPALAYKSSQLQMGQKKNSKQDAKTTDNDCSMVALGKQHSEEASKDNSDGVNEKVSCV

5-HT6 receptor = 5-HT6 receptor (Homo sapiens, UniProt P50406); experiment: PDSP radioligand binding, 5-HT6 receptor; conditions: for 5-HT6 selectivity versus the other receptors tested: versus all other dopamine, serotonin and adrenergic receptors tested
Chain of 5-HT6 receptor (P50406 whole entry): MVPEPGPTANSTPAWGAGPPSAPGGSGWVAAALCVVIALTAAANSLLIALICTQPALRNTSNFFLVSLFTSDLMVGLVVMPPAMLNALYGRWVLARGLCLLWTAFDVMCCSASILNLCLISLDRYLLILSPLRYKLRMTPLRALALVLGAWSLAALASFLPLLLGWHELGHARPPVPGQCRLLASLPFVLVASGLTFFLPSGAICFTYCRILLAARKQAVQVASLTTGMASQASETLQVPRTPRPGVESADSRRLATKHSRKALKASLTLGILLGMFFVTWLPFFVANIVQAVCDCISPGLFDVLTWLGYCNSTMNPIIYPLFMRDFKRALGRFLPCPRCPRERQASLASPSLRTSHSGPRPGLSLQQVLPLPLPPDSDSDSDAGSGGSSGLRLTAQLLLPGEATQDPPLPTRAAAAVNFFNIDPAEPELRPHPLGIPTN

α2C adrenergic receptor = molecular target: T4, α2C adrenergic receptor (Homo sapiens, UniProt P18825); experiment: PDSP radioligand binding, α2C adrenergic receptor
T4 sequence (P18825 1-462): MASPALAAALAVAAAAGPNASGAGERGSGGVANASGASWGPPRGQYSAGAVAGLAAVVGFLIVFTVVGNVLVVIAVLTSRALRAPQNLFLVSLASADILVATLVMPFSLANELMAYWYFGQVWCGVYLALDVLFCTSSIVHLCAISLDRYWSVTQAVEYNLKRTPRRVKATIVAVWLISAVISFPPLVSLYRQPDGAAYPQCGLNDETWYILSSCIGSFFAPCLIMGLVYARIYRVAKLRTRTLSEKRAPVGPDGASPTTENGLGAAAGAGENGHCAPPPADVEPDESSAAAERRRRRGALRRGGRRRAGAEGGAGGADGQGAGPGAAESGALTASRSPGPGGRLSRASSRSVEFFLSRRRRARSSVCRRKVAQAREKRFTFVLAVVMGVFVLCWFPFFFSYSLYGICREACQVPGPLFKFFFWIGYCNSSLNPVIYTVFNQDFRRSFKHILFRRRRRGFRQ

α2A adrenergic receptor = molecular target: T5, α2A adrenergic receptor (Homo sapiens, UniProt P08913); experiment: PDSP radioligand binding, α2A adrenergic receptor
T5 sequence (P08913 1-465): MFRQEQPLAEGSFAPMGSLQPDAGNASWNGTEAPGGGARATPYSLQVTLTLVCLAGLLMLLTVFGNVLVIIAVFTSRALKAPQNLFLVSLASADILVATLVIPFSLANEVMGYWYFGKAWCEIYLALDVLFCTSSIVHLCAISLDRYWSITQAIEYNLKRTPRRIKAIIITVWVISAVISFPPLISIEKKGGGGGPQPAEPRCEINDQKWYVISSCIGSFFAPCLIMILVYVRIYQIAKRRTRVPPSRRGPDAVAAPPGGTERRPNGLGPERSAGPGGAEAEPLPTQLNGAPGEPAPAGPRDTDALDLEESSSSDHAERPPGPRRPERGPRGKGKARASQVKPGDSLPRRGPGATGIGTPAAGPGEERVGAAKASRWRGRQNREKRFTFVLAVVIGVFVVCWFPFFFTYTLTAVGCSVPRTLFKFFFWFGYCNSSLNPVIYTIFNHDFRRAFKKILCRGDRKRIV

D3 receptor = D3 receptor (Homo sapiens, UniProt P35462); experiment: PDSP radioligand binding, dopamine D3 receptor
Chain of D3 receptor (P35462 whole entry): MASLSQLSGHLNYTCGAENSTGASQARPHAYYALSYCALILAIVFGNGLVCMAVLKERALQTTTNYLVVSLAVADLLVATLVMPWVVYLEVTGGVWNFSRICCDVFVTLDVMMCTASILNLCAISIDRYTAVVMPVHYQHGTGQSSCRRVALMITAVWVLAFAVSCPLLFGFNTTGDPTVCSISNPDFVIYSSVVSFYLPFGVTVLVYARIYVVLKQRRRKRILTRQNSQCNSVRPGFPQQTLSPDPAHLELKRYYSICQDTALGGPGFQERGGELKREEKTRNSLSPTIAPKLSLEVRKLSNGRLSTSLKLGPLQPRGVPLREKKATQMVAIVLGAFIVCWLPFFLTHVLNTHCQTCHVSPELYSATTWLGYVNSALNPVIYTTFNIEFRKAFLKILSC

D5 receptor = D5 receptor (Homo sapiens, UniProt P21918); experiment: PDSP radioligand binding, dopamine D5 receptor; conditions: read-out: Ki D5
Chain of D5 receptor (P21918 whole entry): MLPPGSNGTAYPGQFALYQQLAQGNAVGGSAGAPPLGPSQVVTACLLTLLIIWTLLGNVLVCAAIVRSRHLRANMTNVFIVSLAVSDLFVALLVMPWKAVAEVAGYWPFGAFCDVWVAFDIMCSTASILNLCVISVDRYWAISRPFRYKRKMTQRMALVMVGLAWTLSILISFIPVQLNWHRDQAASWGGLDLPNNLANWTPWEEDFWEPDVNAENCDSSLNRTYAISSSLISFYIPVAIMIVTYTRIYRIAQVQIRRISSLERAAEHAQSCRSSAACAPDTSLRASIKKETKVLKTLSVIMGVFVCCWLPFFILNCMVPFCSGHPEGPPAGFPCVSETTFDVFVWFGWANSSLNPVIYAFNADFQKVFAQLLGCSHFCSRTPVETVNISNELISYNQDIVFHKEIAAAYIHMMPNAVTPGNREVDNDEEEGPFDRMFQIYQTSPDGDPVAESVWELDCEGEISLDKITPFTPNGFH

D4 receptor = molecular target: T6, D4 receptor (Homo sapiens, UniProt P21917); experiment: PDSP radioligand binding, dopamine D4 receptor; conditions: read-out: Ki D4
T6 sequence (P21917 1-419): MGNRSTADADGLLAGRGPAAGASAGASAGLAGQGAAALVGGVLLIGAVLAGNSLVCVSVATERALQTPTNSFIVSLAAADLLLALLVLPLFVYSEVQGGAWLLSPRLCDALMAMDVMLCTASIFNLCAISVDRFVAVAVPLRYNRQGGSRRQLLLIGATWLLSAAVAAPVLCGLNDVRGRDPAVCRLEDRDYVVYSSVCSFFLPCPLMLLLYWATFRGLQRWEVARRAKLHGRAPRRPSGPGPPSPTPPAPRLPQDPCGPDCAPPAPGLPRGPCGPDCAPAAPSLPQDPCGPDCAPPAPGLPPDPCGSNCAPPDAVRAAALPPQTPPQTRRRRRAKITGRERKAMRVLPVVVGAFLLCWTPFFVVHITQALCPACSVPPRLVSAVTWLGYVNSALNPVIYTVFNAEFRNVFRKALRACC

α1B adrenergic receptor = molecular target: T7, α1B adrenergic receptor (Homo sapiens, UniProt P35368); experiment: PDSP radioligand binding, α1B adrenergic receptor; conditions: for inhibition at 10 µM: read-out: Ki α1B
T7 sequence (P35368 1-520): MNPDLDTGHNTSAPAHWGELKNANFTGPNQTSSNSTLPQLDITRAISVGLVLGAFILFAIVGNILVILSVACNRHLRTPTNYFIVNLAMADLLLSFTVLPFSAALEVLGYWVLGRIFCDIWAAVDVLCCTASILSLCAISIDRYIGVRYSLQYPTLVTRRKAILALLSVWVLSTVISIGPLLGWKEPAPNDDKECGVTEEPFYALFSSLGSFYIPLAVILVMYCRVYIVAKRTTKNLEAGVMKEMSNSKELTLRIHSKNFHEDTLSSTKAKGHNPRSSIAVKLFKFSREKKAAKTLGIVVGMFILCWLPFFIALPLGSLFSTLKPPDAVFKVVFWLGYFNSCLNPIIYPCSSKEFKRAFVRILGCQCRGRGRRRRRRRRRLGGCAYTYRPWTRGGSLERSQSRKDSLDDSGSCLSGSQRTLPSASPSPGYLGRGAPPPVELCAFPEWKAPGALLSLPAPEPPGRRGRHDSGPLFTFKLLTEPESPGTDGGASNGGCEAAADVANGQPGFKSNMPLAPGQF

| SMILES | Ki (5-HT5A receptor) | Ki (α1A adrenergic receptor) | Ki (D1 receptor) | Ki (D2 receptor) | Ki (5-HT2A receptor) | Ki (5-HT6 receptor) | 5-HT6 selectivity versus the other receptors tested (5-HT6 receptor) | Ki (α2C adrenergic receptor) | Ki (α2A adrenergic receptor) | Ki (D3 receptor) | inhibition at 10 µM (D5 receptor) | inhibition at 10 µM (D4 receptor) | Ki (α1B adrenergic receptor) | Ki (5-HT1A receptor) | Ki (5-HT1B receptor) | Ki (α2B adrenergic receptor) | inhibition at 10 µM (α1B adrenergic receptor) | also measured |
| --- | --- | --- | --- | --- | --- | --- | --- | --- | --- | --- | --- | --- | --- | --- | --- | --- | --- | --- |
| COc1cc2c3c(c1OC)-c1ccccc1C3CN(C)CC2 (stereo not shown) [Compound 12, 6,7-dimethoxy-2-methyl-2,3,4,11b-tetrahydro-1H-fluoreno[9,1-cd]azepine] | 286 nM | 2860 nM | 2460 nM | 636 nM | 811 nM | 5 nM | at least 15 fold | 472 nM | 1170 nM | 79 nM | < 10% | < 10% | 5870 nM |  |  |  |  | inhibition at 10 µM (5-HT1A receptor; read-out: Ki 5-HT1A): < 10%; inhibition at 10 µM (5-HT1B receptor; read-out: Ki 5-HT1B): < 10%; inhibition at 10 µM (α2B adrenergic receptor; read-out: Ki α2B): < 10% |
| COc1cc2c3c(c1OC)-c1ccccc1C3CNCC2 (stereo not shown) [Compound 10, 6,7-dimethoxy-2,3,4,11b-tetrahydro-1H-fluoreno[9,1-cd]azepine] | 578 nM | 545 nM |  | 780 nM | 1680 nM | 5 nM | at least 15 fold | 774 nM | 1600 nM | 415 nM | < 10% | < 10% | 2590 nM | 110 nM | 255 nM | 1120 nM |  | inhibition at 10 µM (D1 receptor; read-out: Ki D1): < 10% |
| CN1CCc2cc(O)c(O)c3c2C(C1)c1ccccc1-3 (stereo not shown) [Compound 13, 2-methyl-2,3,4,11b-tetrahydro-1H-fluoreno[9,1-cd]azepine-6,7-diol] | 363 nM | > 10000 nM | 865 nM |  | 352 nM | 123 nM |  | 1960 nM |  |  | < 10% | < 10% |  | 393 nM | 1030 nM | 5820 nM | < 10% | inhibition at 10 µM (D2 receptor; read-out: Ki D2): < 10%; inhibition at 10 µM (α2A adrenergic receptor; read-out: Ki α2A): < 10%; inhibition at 10 µM (D3 receptor; read-out: Ki D3): < 10% |
| Oc1cc2c3c(c1O)-c1ccccc1C3CNCC2 (stereo not shown) [Compound 11, 2,3,4,11b-tetrahydro-1H-fluoreno[9,1-cd]azepine-6,7-diol] | 244 nM | 3200 nM | 8820 nM |  | 1560 nM | 38 nM |  | 1110 nM | 2590 nM | 2920 nM | < 10% | < 10% |  | 151 nM | 451 nM | 2200 nM | < 10% |  |
